Reference: patent US20060069132A1, “Azolecarboxamide herbicides” (priority 2004, published 2006)

What was measured:
cocklebur = experiment: Test B pre-/postemergence herbicide test; format: in vivo, Xanthium strumarium; details: for Cocklebur plant response rating: postemergence, scale 0 (no effect) to 100 (complete control)
Outline: (§1)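 Greenhouse pot assay with simultaneous preemergence (treated seed) and postemergence (2–18 cm seedlings) applications of surfactant-containing, non-phytotoxic solvent formulations. Response scored visually 13–15 days later on a 0–100 scale, 100 meaning complete control.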

wheat = experiment: Test B postemergence herbicide test; format: in vivo, Triticum aestivum; design: key to Wheat plant response rating: 0 = no effect, 100 = complete control; details: postemergence
Outline: (§2)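 Scale 0–100: zero equals no visible effect, 100 complete control, judged by eye relative to controls. Timing: 13 to 15 days in greenhouse post-treatment. Growth stage at spraying: two leaves (paddy) or one to four leaves, 2–18 cm (postemergence).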

velvetleaf = experiment: Test B pre-/postemergence herbicide test; format: in vivo, Abutilon theophrasti; details: for Velvetleaf plant response rating (0 to 100 scale) / Plant response rating, Velvetleaf: 0 = no effect, 100 = complete control, preemergence; for Velvetleaf plant response rating: postemergence
Outline: (§3)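 Flooded paddy rice and barnyardgrass were treated at the 2-leaf stage; upland plantings received compound either on sown seed or on 1- to 4-leaf seedlings. All were kept 13–15 days in a greenhouse and scored visually, 0–100, relative to untreated plants.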

barnyardgrass [1] = experiment: Test B flooded paddy test; format: in vivo, Echinochloa crus-galli; details: 1000 g ai/ha, scale 0 to 100 (0 no effect, 100 complete control)
Outline: (§4)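 Greenhouse test; postemergence application to plants at 1–4 leaves (2–18 cm); paddy species at 2 leaves; evaluated visually vs controls at 13–15 days; scale 0–100 (100 = complete control).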

morningglory = experiment: Test B pre-/postemergence herbicide test; format: in vivo, Ipomoea coccinea; details: for Morningglory plant response rating (0 to 100 scale) / Plant response rating, Morningglory: 0 = no effect, 100 = complete control, preemergence; for Morningglory plant response rating: postemergence
Outline: as §1

lambsquarters = experiment: Test B pre-/postemergence herbicide test; format: in vivo, Chenopodium album; details: for Lambsquarters plant response rating: postemergence
Outline: as §3

Surinam grass = experiment: Test B pre-/postemergence herbicide test; format: in vivo, Urochloa decumbens; details: for Surinam Grass plant response rating (0 to 100 scale) / Plant response rating, Surinam Grass: 0 = no effect, 100 = complete control, preemergence; for Surinam Grass plant response rating: postemergence
Outline: as §3

rice [2] = experiment: Test B pre-/postemergence herbicide test; format: in vivo, Oryza sativa; details: 0 = no effect, 100 = complete control, preemergence; for Rice plant response rating (0 to 100 scale): 125 g ai/ha; for Plant response rating, Rice: 500 g ai/ha, visual rating
Outline: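 Evaluation is visual, comparing treated with control plants on a scale where 0 means no effect and 100 means full control. Treatments were preemergence, or postemergence on seedlings 2–18 cm tall, and held 13–15 days in the greenhouse.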

ducksalad = experiment: Test B flooded paddy test; format: in vivo, Heteranthera limosa; details: 1000 g ai/ha, scale 0 to 100 (0 no effect, 100 complete control)
Outline: as §4

[3] = tested on: small flower umbrella sedge; experiment: Test B flooded paddy test; format: in vivo, Cyperus difformis; details: 1000 g ai/ha, scale 0 to 100 (0 no effect, 100 complete control)
Outline: as §4

corn = experiment: Test B pre-/postemergence herbicide test; format: in vivo, Zea mays; details: for Corn plant response rating (0 to 100 scale) / Plant response rating, Corn: 0 = no effect, 100 = complete control, preemergence; for Corn plant response rating: postemergence
Outline: as §3

wild oat = experiment: Test B postemergence herbicide test; format: in vivo, Avena fatua; details: postemergence
Outline: as §2

barnyardgrass [4] = experiment: Test B pre-/postemergence herbicide test; format: in vivo, Echinochloa crus-galli; details: for Barnyardgrass plant response rating (0 to 100 scale) / Plant response rating, Barnyardgrass: 0 = no effect, 100 = complete control, preemergence; for Plant response rating, Barnyardgrass / Barnyardgrass plant response rating: visual rating; for Barnyardgrass plant response rating: postemergence, scale 0 (no effect) to 100 (complete control)
Outline: as §1

giant foxtail = experiment: Test B pre-/postemergence herbicide test; format: in vivo, Setaria faberi; details: for Foxtail, Giant plant response rating (0 to 100 scale) / Plant response rating, Foxtail, Giant: 0 = no effect, 100 = complete control, preemergence; for Foxtail, Giant plant response rating: postemergence
Outline: as §3

blackgrass = experiment: Test B postemergence herbicide test; format: in vivo, Alopecurus myosuroides; details: postemergence, visual rating, scale 0 (no effect) to 100 (complete control)
Outline: as §4

rice [5] = experiment: Test B flooded paddy test; format: in vivo, Oryza sativa; details: 1000 g ai/ha, scale 0 to 100 (0 no effect, 100 complete control)
Outline: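 After treating 2-leaf paddy plants or 2–18 cm postemergence plants (1 to 4 leaves) with formulated chemical, researchers kept them in a greenhouse for 13–15 days. Effects were judged visually versus controls: 0 indicates none, 100 total control.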

pigweed = experiment: Test B pre-/postemergence herbicide test; format: in vivo, Amaranthus retroflexus; details: for Pigweed plant response rating: postemergence
Outline: as §3

large crabgrass = experiment: Test B pre-/postemergence herbicide test; format: in vivo, Digitaria sanguinalis; details: for Crabgrass, Large plant response rating: postemergence
Outline: as §3

[6] = 125 g ai/ha, 0 = no effect, 100 = complete control, preemergence
[7] = 500 g ai/ha, visual rating, 0 = no effect, 100 = complete control, preemergence
[8] = 125 g ai/ha, visual rating, scale 0 (no effect) to 100 (complete control)
[9] = 500 g ai/ha, scale 0 to 100, 0 is no effect, 100 is complete control

CCNC(=O)c1cc(NC(=O)c2cc(C(C)(C)C)nn2CC)ccn1 [Compound 257]
Cocklebur plant response rating (0 to 100 scale) (cocklebur; [6]): 0 | Plant response rating, Cocklebur (cocklebur; [7]): 0 | Cocklebur plant response rating (cocklebur; 125 g ai/ha, visual rating): 0 | Cocklebur plant response rating (cocklebur; 500 g ai/ha, visual rating): 70 | Wheat plant response rating (wheat; [8]): 0 | Wheat plant response rating (wheat; [9]): 20 | Velvetleaf plant response rating (0 to 100 scale) (velvetleaf; 125 g ai/ha): 0 | Plant response rating, Velvetleaf (velvetleaf; 500 g ai/ha, visual rating): 0 | Velvetleaf plant response rating (velvetleaf; [8]): 0 | Velvetleaf plant response rating (velvetleaf; [9]): 10 | Barnyardgrass plant response rating (barnyardgrass [1]): 0 | Morningglory plant response rating (0 to 100 scale) (morningglory; 125 g ai/ha): 0 | Plant response rating, Morningglory (morningglory; 500 g ai/ha, visual rating): 0 | Morningglory plant response rating (morningglory; [8]): 0 | Morningglory plant response rating (morningglory; [9]): 0 | Lambsquarters plant response rating (0 to 100 scale) (lambsquarters; [6]): 0 | Lambsquarters plant response rating (lambsquarters; [8]): 20 | Lambsquarters plant response rating (lambsquarters; [9]): 50 | Surinam Grass plant response rating (0 to 100 scale) (Surinam grass; 125 g ai/ha): 0 | Plant response rating, Surinam Grass (Surinam grass; 500 g ai/ha, visual rating): 0 | Surinam Grass plant response rating (Surinam grass; [8]): 0 | Surinam Grass plant response rating (Surinam grass; [9]): 20 | Rice plant response rating (0 to 100 scale) (rice [2]): 0 | Plant response rating, Rice (rice [2]): 0 | Ducksalad plant response rating (ducksalad): 50 | Sedge, Umbrella plant response rating [3]: 0 | Corn plant response rating (0 to 100 scale) (corn; 125 g ai/ha): 0 | Plant response rating, Corn (corn; 500 g ai/ha, visual rating): 0 | Corn plant response rating (corn; [8]): 0 | Corn plant response rating (corn; [9]): 0 | Oat, Wild plant response rating (wild oat; [8]): 10 | Oat, Wild plant response rating (wild oat; [9]): 30 | Barnyardgrass plant response rating (0 to 100 scale) (barnyardgrass [4]; 125 g ai/ha): 0 | Plant response rating, Barnyardgrass (barnyardgrass [4]; 500 g ai/ha): 20 | Barnyardgrass plant response rating (barnyardgrass [4]; 125 g ai/ha): 0 | Barnyardgrass plant response rating (barnyardgrass [4]; 500 g ai/ha): 0 | Foxtail, Giant plant response rating (0 to 100 scale) (giant foxtail; 125 g ai/ha): 0 | Plant response rating, Foxtail, Giant (giant foxtail; 500 g ai/ha, visual rating): 50 | Foxtail, Giant plant response rating (giant foxtail; [8]): 0 | Foxtail, Giant plant response rating (giant foxtail; [9]): 0 | Blackgrass plant response rating (blackgrass; 125 g ai/ha): 0 | Blackgrass plant response rating (blackgrass; 500 g ai/ha): 10 | Rice plant response rating (rice [5]): 30 | Pigweed plant response rating (0 to 100 scale) (pigweed; [6]): 0 | Pigweed plant response rating (pigweed; [8]): 60 | Pigweed plant response rating (pigweed; [9]): 80 | Crabgrass, Large plant response rating (0 to 100 scale) (large crabgrass; [6]): 0 | Crabgrass, Large plant response rating (large crabgrass; [8]): 0 | Crabgrass, Large plant response rating (large crabgrass; [9]): 10

C=CCN(CC=C)C(=O)c1cncc(NC(=O)c2cc(C(C)(C)C)nn2CC)c1 [Compound 262]
Cocklebur plant response rating (0 to 100 scale) (cocklebur; [6]): 0 | Cocklebur plant response rating (cocklebur; 125 g ai/ha, visual rating): 0 | Cocklebur plant response rating (cocklebur; 500 g ai/ha, visual rating): 10 | Wheat plant response rating (wheat; [8]): 0 | Wheat plant response rating (wheat; [9]): 10 | Velvetleaf plant response rating (0 to 100 scale) (velvetleaf; 125 g ai/ha): 0 | Plant response rating, Velvetleaf (velvetleaf; 500 g ai/ha, visual rating): 80 | Velvetleaf plant response rating (velvetleaf; [8]): 20 | Velvetleaf plant response rating (velvetleaf; [9]): 20 | Barnyardgrass plant response rating (barnyardgrass [1]): 0 | Morningglory plant response rating (0 to 100 scale) (morningglory; 125 g ai/ha): 0 | Plant response rating, Morningglory (morningglory; 500 g ai/ha, visual rating): 0 | Morningglory plant response rating (morningglory; [8]): 0 | Morningglory plant response rating (morningglory; [9]): 0 | Lambsquarters plant response rating (0 to 100 scale) (lambsquarters; [6]): 40 | Plant response rating, Lambsquarters (lambsquarters; [7]): 90 | Lambsquarters plant response rating (lambsquarters; [8]): 50 | Lambsquarters plant response rating (lambsquarters; [9]): 80 | Surinam Grass plant response rating (0 to 100 scale) (Surinam grass; 125 g ai/ha): 0 | Plant response rating, Surinam Grass (Surinam grass; 500 g ai/ha, visual rating): 10 | Surinam Grass plant response rating (Surinam grass; [8]): 0 | Surinam Grass plant response rating (Surinam grass; [9]): 20 | Rice plant response rating (0 to 100 scale) (rice [2]): 0 | Plant response rating, Rice (rice [2]): 0 | Ducksalad plant response rating (ducksalad): 0 | Sedge, Umbrella plant response rating [3]: 0 | Corn plant response rating (0 to 100 scale) (corn; 125 g ai/ha): 0 | Plant response rating, Corn (corn; 500 g ai/ha, visual rating): 0 | Corn plant response rating (corn; [8]): 0 | Corn plant response rating (corn; [9]): 20 | Oat, Wild plant response rating (wild oat; [8]): 0 | Oat, Wild plant response rating (wild oat; [9]): 0 | Barnyardgrass plant response rating (0 to 100 scale) (barnyardgrass [4]; 125 g ai/ha): 0 | Plant response rating, Barnyardgrass (barnyardgrass [4]; 500 g ai/ha): 10 | Barnyardgrass plant response rating (barnyardgrass [4]; 125 g ai/ha): 0 | Barnyardgrass plant response rating (barnyardgrass [4]; 500 g ai/ha): 10 | Foxtail, Giant plant response rating (0 to 100 scale) (giant foxtail; 125 g ai/ha): 0 | Plant response rating, Foxtail, Giant (giant foxtail; 500 g ai/ha, visual rating): 0 | Foxtail, Giant plant response rating (giant foxtail; [8]): 10 | Foxtail, Giant plant response rating (giant foxtail; [9]): 20 | Blackgrass plant response rating (blackgrass; 125 g ai/ha): 0 | Blackgrass plant response rating (blackgrass; 500 g ai/ha): 20 | Rice plant response rating (rice [5]): 0 | Pigweed plant response rating (0 to 100 scale) (pigweed; [6]): 50 | Plant response rating, Pigweed (pigweed; [7]): 100 | Pigweed plant response rating (pigweed; [8]): 70 | Pigweed plant response rating (pigweed; [9]): 80 | Crabgrass, Large plant response rating (0 to 100 scale) (large crabgrass; [6]): 0 | Plant response rating, Crabgrass, Large (large crabgrass; [7]): 30 | Crabgrass, Large plant response rating (large crabgrass; [8]): 0 | Crabgrass, Large plant response rating (large crabgrass; [9]): 20
